Experimental data published in PubChem BioAssay (NCI).
Where “and” joins values, the source holds several entries; their conditions need not be identical. Equal values may be shown once.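 1) Cells in 96-well plates. 2) Compound, 48 h, 5 concentrations. 3) Linear interpolation between surrounding doses. 4) Unreached endpoint = highest concentration. GI50 marks 50% less growth. TGI: total growth inhibition.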

What was measured:
Test in all cases: NCI tumour cell line growth inhibition, 48 h
OVCAR-8 ovarian = tested on: OVCAR-8 ovarian
SW-620 colon = tested on: SW-620 colon
SN12C renal = tested on: SN12C renal
HOP-62 NSCLC = tested on: HOP-62 NSCLC
CCRF-CEM leukemia = tested on: CCRF-CEM leukemia
ACHN renal = tested on: ACHN renal
MDA-MB-435 = tested on: MDA-MB-435
DU-145 prostate = tested on: DU-145 prostate
HT29 colon = tested on: HT29 colon
SK-MEL-28 melanoma = tested on: SK-MEL-28 melanoma

SMILES | TGI (OVCAR-8 ovarian) | TGI (SW-620 colon) | TGI (SN12C renal) | TGI (HOP-62 NSCLC) | TGI (CCRF-CEM leukemia) | TGI (ACHN renal) | TGI (MDA-MB-435) | TGI (DU-145 prostate) | TGI (HT29 colon) | TGI (SK-MEL-28 melanoma) | GI50 (OVCAR-8 ovarian) | GI50 (SW-620 colon) | GI50 (SN12C renal) | GI50 (HOP-62 NSCLC) | GI50 (CCRF-CEM leukemia) | GI50 (ACHN renal) | GI50 (MDA-MB-435) | GI50 (DU-145 prostate) | GI50 (HT29 colon) | GI50 (SK-MEL-28 melanoma)
COc1cc(OC)c(OC)cc1/C=C1\C=Cc2ccccc21 | > 100 µM | 35.4 µM | 36.7 µM | 37.5 µM | > 100 µM | > 100 µM | 14.5 µM | > 100 µM | > 100 µM | 47.6 µM | – | – | – | – | – | – | – | – | – | –
COc1cccc(Cn2cc3c(c2)-c2oncc2CC3)c1 | > 69.3 µM | > 100 µM | > 100 µM | > 100 µM | – | > 100 µM | 0.327 µM | 1.24 µM | 11.7 µM | > 100 µM | 0.622 µM | 0.319 µM | 0.597 µM | 0.528 µM | 0.253 µM | 0.876 µM | 0.0769 µM | 0.314 µM | 0.306 µM | 0.746 µM
CCCCCC(=O)OCC(=O)O[C@@H]1C[C@]2(C(C)C)O[C@@]1(C)[C@@H]1CC[C@@H](C)[C@H]1[C@@H]2OC(=O)/C=C/c1ccccc1 | > 79.2 µM | > 67.6 µM | > 78.7 µM | > 100 µM | > 100 µM | 10.1 µM | > 86.4 µM | > 72.4 µM | > 79.1 µM | > 83 µM | 0.0907 µM | > 40.7 µM | 2.9 µM | > 74.6 µM | > 37.6 µM | 0.0387 µM | > 58.2 µM | > 48.4 µM | > 37.4 µM | > 56.6 µM
O=C1C=CN(C2OC(CO)C(O)C2O)C(=O)C1 (stereo not given) | 625 µM and > 2500 µM | 625 µM and > 2500 µM | – | 625 µM and 1340 µM | > 1710 µM | > 2500 µM | > 2500 µM | > 819 µM | 625 µM and > 1730 µM | > 2500 µM | 72.6 µM and 42.7 µM | 71.4 µM | 1.34 µM | 18.7 µM | > 625 µM | – | – | – | 13 µM | > 625 µM and 252 µM
CC12CCc3ccccc3C1=Nc1ccccc12 (stereo not given) | > 100 µM | > 100 µM | 43.7 µM | > 100 µM | 47.3 µM | > 100 µM | 82.6 µM | > 100 µM | > 100 µM | > 100 µM | – | – | – | – | – | – | – | – | – | –
O=C(Nc1cccc(C(F)(F)F)c1)c1cccc(NC2=C(Cl)C(=O)N(Cc3ccccc3)C2=O)c1 | 66.1 µM | > 100 µM | > 100 µM | > 100 µM | 51.6 µM | 85.2 µM | > 100 µM | > 100 µM | > 100 µM | > 100 µM | 15.7 µM | 38.4 µM | 14.9 µM | 40.1 µM | 1.87 µM | 15.8 µM | 8.69 µM | 37.2 µM | 40.1 µM | 45.1 µM
CC1CCCN(CC(O)CN2CCCc3ccccc32)C1 (stereo not given) | > 100 µM | > 100 µM | > 100 µM | > 100 µM | > 100 µM | > 100 µM | > 100 µM | > 100 µM | > 100 µM | > 100 µM | – | – | – | – | – | – | – | – | – | –
CCOC(=O)CNC(=O)CCCn1c(=O)c2c3ccccc3n(C)c2n2nnc(-c3ccccc3)c12 | > 50 µM | > 50 µM | > 50 µM | 17.7 µM | > 50 µM | 33.7 µM | > 50 µM | > 50 µM | > 50 µM | > 50 µM | 25.2 µM | > 50 µM | > 50 µM | 5.88 µM | 26.5 µM | 9.24 µM | > 50 µM | 32 µM | > 50 µM | > 50 µM
CCOC(=O)N1C/C(=C/c2ccc(OC)cc2)C(=O)/C(=C/c2ccc(OC)cc2)C1 | 14.6 µM | 4.4 µM | 4.23 µM | 5.11 µM | > 100 µM | 5.18 µM | 4.71 µM | > 100 µM | 2.53 µM | 7.84 µM | 3.49 µM | 1.37 µM | 1.91 µM | 2.1 µM | 2.85 µM | 1.96 µM | 1.19 µM | 4.18 µM | 0.79 µM | 2.72 µM
NC(N)=N/N=C/c1cccc(Cl)c1Cl | 25.8 µM | 5.89 µM | 16.3 µM | 24.1 µM | 29.2 µM | 25.9 µM | 3.89 µM | 21.1 µM | 5.98 µM | 14.7 µM | 8.93 µM | 2.25 µM | 3.92 µM | 11.7 µM | 7.26 µM | 12.4 µM | 1.77 µM | 9.18 µM | 2.31 µM | 4.24 µM
Oc1ccc(Br)cc1/C=N/NC(=S)NC12CC3CC(CC(C3)C1)C2 | 4.4 µM | 3.47 µM | 3.18 µM | 3.32 µM | 8.14 µM | 10.3 µM | 5.45 µM | 6.73 µM | 3.93 µM | 10.1 µM | 1.6 µM | 1.74 µM | 1.63 µM | 1.52 µM | 0.897 µM | 2.08 µM | 1.98 µM | 2.25 µM | 2.02 µM | 2.66 µM
O=C1NC(=O)C2(CCC(O)C2)c2cc[n+]([O-])cc21 (stereo not given) | > 100 µM | > 100 µM | > 100 µM | > 100 µM | > 100 µM | > 100 µM | > 100 µM | > 100 µM | > 100 µM | > 100 µM | – | – | – | – | – | – | – | – | – | –
COc1ccc2c(c1OC)-c1c(c3ccc([N+](=O)[O-])cc3c(=O)n1CCCN=[N+]=[N-])C2=O | > 100 µM | > 100 µM | > 100 µM | 92.8 µM | 17.1 µM | 22.1 µM | > 100 µM | > 100 µM | > 100 µM | > 100 µM | 21 µM | 23.1 µM | 11.5 µM | 5.02 µM | 2.04 µM | 3.63 µM | 72.4 µM | 4.88 µM | 31.7 µM | > 100 µM
Cc1ccc(C2SCc3nc4ccc(C(=O)c5ccccc5)cc4n32)cc1 (stereo not given) | 62.6 µM | > 39.1 µM | 38.3 µM | 39.6 µM | > 100 µM | > 56.9 µM | 11.4 µM | 89.6 µM | > 100 µM | > 100 µM | 15.4 µM | 3.69 µM | 11.4 µM | 14.8 µM | 23.8 µM | 14.1 µM | 2.83 µM | 27.9 µM | 5.73 µM | 17.7 µM
CC1CCC2C(C)C3C(CC4C5CC=C6CC(OC7OC(CO)C(O)C(OC8OC(CO)C(O)C(O)C8O)C7OC7OC(C)C(O)C(O)C7O)CCC6(C)C5CCC43C)N2C1 (stereo not given) | 29.8 µM and > 2.5 µg/mL | 31.6 µM and > 2.5 µg/mL | 24.3 µM and > 2.5 µg/mL | 32.2 µM and > 2.5 µg/mL | 28.2 µM and > 2.5 µg/mL | 20.3 µM and > 2.5 µg/mL | 21 µM and > 2.5 µg/mL | 38.7 µM and > 2.5 µg/mL | 25.6 µM and > 2.5 µg/mL | 21.8 µM and > 2.5 µg/mL | > 2.5 µg/mL | > 2.5 µg/mL | > 2.5 µg/mL | > 2.5 µg/mL | > 2.5 µg/mL | > 2.5 µg/mL | > 2.5 µg/mL | > 2.5 µg/mL | > 2.5 µg/mL | > 2.5 µg/mL
O=C(O)c1ccc(-c2ccc(C(=O)O)cc2I)c(I)c1 | > 100 µM | > 100 µM | > 100 µM | > 100 µM | > 100 µM | > 100 µM | > 100 µM | > 100 µM | > 100 µM | > 100 µM | > 100 µM | > 100 µM | > 100 µM | > 100 µM | > 100 µM | > 100 µM | > 100 µM | > 100 µM | > 100 µM | > 100 µM
Cc1c2ncccc2nc2[nH]c3ccc(OCCN(C)C)cc3c12 | 16.5 µM | 13.7 µM | 28.5 µM | 13.7 µM | 20.9 µM | 7.95 µM | 15.7 µM | 11.6 µM | 6.05 µM | 19.1 µM | 1.49 µM | 0.94 µM | 2.5 µM | 1.73 µM | 2.1 µM | 0.75 µM | 3.12 µM | 1.9 µM | 0.961 µM | 4.4 µM
c1ccc2cc(OCC3CO3)c(OCC3CO3)cc2c1 (stereo not given) | 12.2 µM | 13.9 µM | 15 µM | 13.6 µM | 1.48 µM | 6.05 µM | 21.7 µM | 16.7 µM | 20.1 µM | 26.1 µM | – | – | – | – | – | – | – | – | – | –
CCCCCCCCCCCCOC1C(C(COC2OC(C(O)CN3CCCCC3)C3OC(C)(C)OC23)NC(=O)Nc2ccccc2)OC2OC(C)(C)OC21 (stereo not given) | 39.7 µM | 14.7 µM | 33.2 µM | 32.9 µM | 2.23 µM | 34.5 µM | 20.8 µM | 25.7 µM | 4.73 µM | 15.3 µM | 15.5 µM | 4.11 µM | 16 µM | 16.1 µM | 0.863 µM | 17.3 µM | 7.02 µM | 11.9 µM | 2 µM | 7.89 µM
CCCCSCc1nc2nc(Cl)c(Cl)nc2[nH]1 | > 100 µM | > 100 µM | 53.2 µM | 42 µM | 63.6 µM | 71.5 µM | > 100 µM | > 100 µM | > 100 µM | 71.9 µM | – | – | – | – | – | – | – | – | – | –
CCn1c(-c2nonc2N)nc2c(C#CC(C)(C)O)nc(O[C@@H](CN)c3ccccc3)cc21 | 2.59 µM | 3.17 µM | 2.82 µM | 1.98 µM | 5.16 µM | 4.73 µM | 2.99 µM | 4.64 µM | 0.735 µM | 1.19 µM | 0.244 µM | 0.119 µM | 0.208 µM | 0.294 µM | 0.0554 µM | 0.689 µM | 0.365 µM | 0.112 µM | 0.119 µM | 0.399 µM
